Values of other authors, collected in US20180092930A1, “METHODS OF DIAGNOSING AND TREATING ABIRATERONE ACETATE- GLUCOCORTICOID -RESISTANT OR -SENSITIVE METASTATIC CASTRATION RESISTANT PROSTATE CANCER” (Janssen Pharmaceutica NV, priority 2016, published 2018).
Read-outs that look alike come from different tables or passages of the source.

Key:
CRPC = settings: pooled patients treated with AA or enzalutamide
[1] = test system: castration-resistant prostate cancer

SMILES | OS (CRPC; ARV7+ at baseline) [months] | OS (CRPC; ARV7- at baseline) | PSA response rate ([1]; ARV7-negative patients) [%] | PSA-PFS, median ([1]; ARV7-negative patients) | clinical or radiographic progression-free survival, median ([1]; ARV7-negative patients) | overall survival, median ([1]; ARV7-negative patients) | PSA response rate ([1]; ARV7-positive patients) [%] | PSA-PFS, median ([1]; ARV7-positive patients) [months] | clinical or radiographic progression-free survival, median ([1]; ARV7-positive patients) [months] | overall survival, median ([1]; ARV7-positive patients) [months]
CC(=O)O[C@H]1CC[C@@]2(C)C(=CC[C@@H]3[C@@H]2CC[C@]2(C)C(c4cccnc4)=CC[C@@H]32)C1 [abiraterone acetate] | 8 | not reached | 68 | not reached | not reached | not reached | 0 | 1.3 | 2.3 | 10.6
CNC(=O)c1ccc(N2C(=S)N(c3ccc(C#N)c(C(F)(F)F)c3)C(=O)C2(C)C)cc1F [enzalutamide] | 8 | not reached | – | – | – | – | – | – | – | –
